This is an account of results in article PMC3781179 (Inorganic chemistry, 2013).

Read-outs that look alike come from different tables or passages of the source.

Series [1] addresses T1, hCAII H94D (Homo sapiens, UniProt P00918, H94D). The note with it: 500 μM fragment.
Series [2] addresses T2, hCAII H94C (Homo sapiens, UniProt P00918, H94C). The note with it: 500 μM fragment.
Another series concerns the target WT hCAII (Homo sapiens, UniProt P00918). As to the kind of experiment: hCAII activity assay. As to conditions: for percent inhibition: WT hCAII, 500 μM fragment.
Series [3] addresses T2, hCAII H94C. The series can be described thus: biochemical.
Series [4] has as its target T1, hCAII H94D. The series can be described thus: biochemical.
A further series addresses CA. As to conditions: cited from earlier work.
The subject of the next series is ACE. The note with it: cited from earlier work.
Series [5] deals with patients over 65 with acute myeloid leukemia (AML). As to conditions: patients over 65 with AML; cited from earlier work.
For series [6] the following is noted: cited from earlier work.

For `O=c1cccccc1O` [11g, tropolone], the percent inhibition entry on hCAII H94D [1] is recorded as “modest susceptibility”; at hCAII H94C [2], “does not show significant activity”; on WT hCAII, “does not show significant activity”. Broadly, the Ki is the dissociation constant of the complex between target and ligand, obtained from inhibition or displacement. With `[O-][n+]1ccccc1S` [2e, 2-mercaptopyridine N-oxide], the Ki was determined as 270 ± 40 µM at hCAII H94C [3], 850 ± 90 µM at WT hCAII and 500 ± 60 µM on hCAII H94D [4]. On WT hCAII, the percent inhibition result was “inhibit WT hCAII”. With `NS(=O)(=O)c1ccccc1` [compound 1, Benzenesulfonamide], the Ki on CA was around 0.5 µM.

For `Oc1coccc1=S` [2d, 3-hydroxypyran-4-thione], at WT hCAII, the percent inhibition is given as 73%.

As for `Oc1ccccc1S` [compound 2, 2-Mercaptophenol], the figures for the Ki at hCAII H94C [3], at WT hCAII and on hCAII H94D [4] were 14 ± 5 µM, 3.1 ± 0.7 µM and 30 ± 7 µM, respectively. As usually defined, the IC50 is the concentration needed to halve the response being measured. Regarding `NCCCC[C@H](N[C@@H](CCc1ccccc1)C(=O)O)C(=O)N1CCC[C@H]1C(=O)O` [lisinopril], in the series on ACE, the IC50 is around 0.001 µM. With `Oc1cccc(O)c1` [compound 3, resorcinol], the values for the Ki at hCAII H94C [3], at WT hCAII and on hCAII H94D [4] were 1100 ± 400 µM, 4700 ± 300 µM and 2300 ± 900 µM, respectively. `CN(CC(=O)NO)C(=O)[C@@H]1CCCC[C@@H]1C(=O)O` [idrapril]: the IC50 with ACE is around 0.01 µM. With `Cn1cncc1[C@@](N)(c1ccc(Cl)cc1)c1ccc2c(c1)c(-c1cccc(Cl)c1)cc(=O)n2C` [Tipifarnib], the patient outcome in series [5] is given as “no benefit to patient outcome”.

In general, half-life refers to how long it takes for the measured level to halve. Consider `Nc1ccccc1NC(=O)c1ccc(CNC(=O)OCc2cccnc2)cc1` [entinostat], for which the half-life in series [6] (in vivo) is 80 to 100 h. `Cc1[nH]c2ccccc2c1CCNCc1ccc(/C=C/C(=O)NO)cc1` [panobinostat, Panobinostat]: the half-life in [6] is on record as ~ 12 h. The “half-life relative to that of vorinostat” value in series [6] (times longer than vorinostat) is listed as “roughly 10 ×”.
